ChEMBL document CHEMBL5442741, “ASAP - In vitro kinase profile” (2024)
Values joined by “and” are separate entries in the source; they are usually repeats but may differ in a detail not shown here. Identical values can stand only once.

Tests used:
[1] = target: Cyclin-dependent kinase 1/cyclin B (Homo sapiens) (UniProt P06493+P14635+Q8WWL7+O95067); assay: Enzymatic radiometric [Km ATP] KinaseProfiler LeadHunter assay, kinase: CDK1/cyclinB, catalogue number: 14-450KP The assay has been performed by Eurofins Discovery.; assay type: protein-complex assay; settings: ATP concentration 45.0 uM, Test compound concentration 10.0 uM
[2] = target: Platelet-derived growth factor receptor beta (Homo sapiens) (UniProt P09619); assay: Enzymatic radiometric [Km ATP] KinaseProfiler LeadHunter assay, kinase: PDGFR-beta, catalogue number: 14-463KP The assay has been performed by Eurofins Discovery.; settings: ATP concentration 200.0 uM, Test compound concentration 10.0 uM
[3] = target: T1, cGMP-dependent protein kinase 1 (Homo sapiens) (UniProt Q13976); assay: Enzymatic radiometric [Km ATP] KinaseProfiler LeadHunter assay, kinase: PKG1-alpha, catalogue number: 14-688KP The assay has been performed by Eurofins Discovery.; settings: ATP concentration 90.0 uM, Test compound concentration 10.0 uM
T1 sequence (whole entry): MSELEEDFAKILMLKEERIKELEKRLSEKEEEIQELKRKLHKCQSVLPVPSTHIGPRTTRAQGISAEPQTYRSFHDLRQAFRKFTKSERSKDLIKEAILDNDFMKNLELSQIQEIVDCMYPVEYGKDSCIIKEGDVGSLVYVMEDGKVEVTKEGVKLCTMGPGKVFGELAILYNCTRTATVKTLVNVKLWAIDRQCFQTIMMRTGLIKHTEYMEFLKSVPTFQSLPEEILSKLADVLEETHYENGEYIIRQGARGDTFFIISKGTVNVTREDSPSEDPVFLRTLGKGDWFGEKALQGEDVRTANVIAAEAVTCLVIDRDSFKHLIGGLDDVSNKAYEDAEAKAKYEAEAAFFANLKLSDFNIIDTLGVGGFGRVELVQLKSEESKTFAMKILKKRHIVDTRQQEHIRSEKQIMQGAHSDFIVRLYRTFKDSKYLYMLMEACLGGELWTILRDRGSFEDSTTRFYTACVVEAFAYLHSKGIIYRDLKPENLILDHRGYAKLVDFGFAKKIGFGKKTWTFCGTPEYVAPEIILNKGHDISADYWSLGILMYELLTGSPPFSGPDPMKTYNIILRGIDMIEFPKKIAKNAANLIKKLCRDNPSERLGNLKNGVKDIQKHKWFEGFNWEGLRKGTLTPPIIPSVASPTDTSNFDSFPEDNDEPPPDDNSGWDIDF

[4] = target: T2, MAP kinase-activated protein kinase 5 (Homo sapiens) (UniProt Q8IW41); assay: Enzymatic radiometric [Km ATP] KinaseProfiler LeadHunter assay, kinase: PRAK, catalogue number: 14-334KP The assay has been performed by Eurofins Discovery.; settings: ATP concentration 15.0 uM, Test compound concentration 10.0 uM
T2 sequence (whole entry): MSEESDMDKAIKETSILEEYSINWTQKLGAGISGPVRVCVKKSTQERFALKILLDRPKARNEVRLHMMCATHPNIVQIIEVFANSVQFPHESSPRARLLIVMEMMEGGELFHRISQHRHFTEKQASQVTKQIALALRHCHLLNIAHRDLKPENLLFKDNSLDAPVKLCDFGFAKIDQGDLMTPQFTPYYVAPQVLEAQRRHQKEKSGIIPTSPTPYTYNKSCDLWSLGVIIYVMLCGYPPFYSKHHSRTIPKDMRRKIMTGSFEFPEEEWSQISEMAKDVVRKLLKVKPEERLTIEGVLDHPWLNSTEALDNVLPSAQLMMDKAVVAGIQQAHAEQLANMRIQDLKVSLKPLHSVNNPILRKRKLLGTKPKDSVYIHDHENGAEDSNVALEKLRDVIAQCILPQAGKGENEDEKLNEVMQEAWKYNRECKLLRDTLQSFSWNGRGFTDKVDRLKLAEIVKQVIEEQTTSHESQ

[5] = target: SRSF protein kinase 1 (Homo sapiens) (UniProt Q96SB4); assay: Enzymatic radiometric [Km ATP] KinaseProfiler LeadHunter assay, kinase: SRPK1, catalogue number: 14-564KP The assay has been performed by Eurofins Discovery.; settings: ATP concentration 10.0 uM, Test compound concentration 10.0 uM
[6] = target: T3, Mitogen-activated protein kinase kinase kinase 7 (Homo sapiens) (UniProt O43318); assay: Enzymatic radiometric [Km ATP] KinaseProfiler LeadHunter assay, kinase: TAK1, catalogue number: 14-600KP The assay has been performed by Eurofins Discovery.; settings: ATP concentration 45.0 uM, Test compound concentration 10.0 uM
T3 sequence (whole entry): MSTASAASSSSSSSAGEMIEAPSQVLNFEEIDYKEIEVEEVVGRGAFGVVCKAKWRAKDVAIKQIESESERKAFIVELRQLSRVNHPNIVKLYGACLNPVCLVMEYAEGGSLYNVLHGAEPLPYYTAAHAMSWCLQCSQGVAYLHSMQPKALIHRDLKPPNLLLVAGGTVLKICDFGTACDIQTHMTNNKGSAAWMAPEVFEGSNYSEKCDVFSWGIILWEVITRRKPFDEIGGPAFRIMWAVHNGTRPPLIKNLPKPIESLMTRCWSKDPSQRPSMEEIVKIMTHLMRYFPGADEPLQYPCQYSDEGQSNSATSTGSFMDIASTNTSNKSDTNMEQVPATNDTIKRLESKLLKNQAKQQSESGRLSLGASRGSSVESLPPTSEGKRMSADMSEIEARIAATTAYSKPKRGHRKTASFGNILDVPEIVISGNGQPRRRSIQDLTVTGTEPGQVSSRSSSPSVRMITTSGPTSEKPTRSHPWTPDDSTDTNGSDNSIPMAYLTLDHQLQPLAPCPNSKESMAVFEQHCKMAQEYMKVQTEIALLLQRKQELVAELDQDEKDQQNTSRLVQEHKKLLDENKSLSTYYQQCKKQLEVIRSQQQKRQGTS

[7] = target: Phosphatidylinositol 4,5-bisphosphate 3-kinase catalytic subunit gamma isoform (Homo sapiens) (UniProt P48736); assay: Enzymatic radiometric [Km ATP] KinaseProfiler LeadHunter assay, kinase: PI3 Kinase (p120-gamma), catalogue number: 14-558KP The assay has been performed by Eurofins Discovery.; settings: ATP concentration 100.0 uM, Test compound concentration 10.0 uM
Chain of Phosphatidylinositol 4,5-bisphosphate 3-kinase catalytic subunit gamma isoform (Homo sapiens) (P48736 whole entry, looked up, canonical isoform): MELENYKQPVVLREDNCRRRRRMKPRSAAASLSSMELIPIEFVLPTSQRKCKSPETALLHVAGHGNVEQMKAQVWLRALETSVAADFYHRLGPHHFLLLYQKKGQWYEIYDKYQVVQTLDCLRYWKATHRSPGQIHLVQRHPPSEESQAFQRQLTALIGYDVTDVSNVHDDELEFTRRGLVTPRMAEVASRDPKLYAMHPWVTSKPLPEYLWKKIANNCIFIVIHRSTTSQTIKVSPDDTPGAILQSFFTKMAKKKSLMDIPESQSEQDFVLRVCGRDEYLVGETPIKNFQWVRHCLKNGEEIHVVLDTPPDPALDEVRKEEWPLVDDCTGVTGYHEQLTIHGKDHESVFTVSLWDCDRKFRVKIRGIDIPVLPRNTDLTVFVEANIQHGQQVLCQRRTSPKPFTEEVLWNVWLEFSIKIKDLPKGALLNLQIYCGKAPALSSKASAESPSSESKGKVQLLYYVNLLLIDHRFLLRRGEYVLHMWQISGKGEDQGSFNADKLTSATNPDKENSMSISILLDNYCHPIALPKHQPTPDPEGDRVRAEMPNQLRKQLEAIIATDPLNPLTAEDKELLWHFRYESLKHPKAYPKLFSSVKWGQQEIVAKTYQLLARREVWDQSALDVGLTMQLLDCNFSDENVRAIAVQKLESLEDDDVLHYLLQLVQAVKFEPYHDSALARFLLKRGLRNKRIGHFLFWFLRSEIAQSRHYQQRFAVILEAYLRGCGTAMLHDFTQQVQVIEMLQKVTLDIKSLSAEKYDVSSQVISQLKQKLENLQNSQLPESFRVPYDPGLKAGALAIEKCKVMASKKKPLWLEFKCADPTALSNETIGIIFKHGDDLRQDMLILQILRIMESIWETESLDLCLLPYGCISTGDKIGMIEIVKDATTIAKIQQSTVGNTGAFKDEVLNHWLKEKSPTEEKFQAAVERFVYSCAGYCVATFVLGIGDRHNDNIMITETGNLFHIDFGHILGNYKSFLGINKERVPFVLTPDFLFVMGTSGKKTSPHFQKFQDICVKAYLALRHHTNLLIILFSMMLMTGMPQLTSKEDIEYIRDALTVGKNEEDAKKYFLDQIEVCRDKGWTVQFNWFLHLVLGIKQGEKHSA

Chain of Platelet-derived growth factor receptor beta (Homo sapiens) (P09619 whole entry): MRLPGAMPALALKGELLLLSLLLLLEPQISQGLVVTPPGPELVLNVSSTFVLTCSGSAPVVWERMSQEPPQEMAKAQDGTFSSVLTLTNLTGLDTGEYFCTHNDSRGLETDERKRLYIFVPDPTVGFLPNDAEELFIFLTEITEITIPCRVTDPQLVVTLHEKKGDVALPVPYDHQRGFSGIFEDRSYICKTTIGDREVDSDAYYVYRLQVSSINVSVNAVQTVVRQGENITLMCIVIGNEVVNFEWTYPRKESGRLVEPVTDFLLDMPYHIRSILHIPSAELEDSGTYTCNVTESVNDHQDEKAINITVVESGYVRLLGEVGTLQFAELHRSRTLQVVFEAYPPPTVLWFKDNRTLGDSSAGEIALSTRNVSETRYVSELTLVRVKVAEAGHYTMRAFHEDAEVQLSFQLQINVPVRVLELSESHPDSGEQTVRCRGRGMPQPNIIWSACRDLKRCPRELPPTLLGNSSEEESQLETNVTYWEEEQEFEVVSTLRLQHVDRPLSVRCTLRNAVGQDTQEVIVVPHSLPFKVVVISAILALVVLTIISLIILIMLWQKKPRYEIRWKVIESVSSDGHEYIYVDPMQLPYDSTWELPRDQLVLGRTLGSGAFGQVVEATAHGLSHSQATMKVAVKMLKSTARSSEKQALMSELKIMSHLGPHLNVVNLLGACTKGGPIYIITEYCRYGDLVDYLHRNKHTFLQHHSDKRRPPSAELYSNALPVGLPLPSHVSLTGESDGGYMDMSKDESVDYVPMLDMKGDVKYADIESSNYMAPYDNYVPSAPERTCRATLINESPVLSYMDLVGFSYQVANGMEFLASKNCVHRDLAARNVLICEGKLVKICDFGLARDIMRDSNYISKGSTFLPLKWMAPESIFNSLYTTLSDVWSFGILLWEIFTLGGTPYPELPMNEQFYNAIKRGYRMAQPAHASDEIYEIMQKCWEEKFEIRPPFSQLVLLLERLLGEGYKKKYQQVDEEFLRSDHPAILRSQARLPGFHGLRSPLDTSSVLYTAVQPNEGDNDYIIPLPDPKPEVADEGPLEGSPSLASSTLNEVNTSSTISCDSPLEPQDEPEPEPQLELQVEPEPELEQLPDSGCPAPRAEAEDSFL
Chain of SRSF protein kinase 1 (Homo sapiens) (Q96SB4 whole entry): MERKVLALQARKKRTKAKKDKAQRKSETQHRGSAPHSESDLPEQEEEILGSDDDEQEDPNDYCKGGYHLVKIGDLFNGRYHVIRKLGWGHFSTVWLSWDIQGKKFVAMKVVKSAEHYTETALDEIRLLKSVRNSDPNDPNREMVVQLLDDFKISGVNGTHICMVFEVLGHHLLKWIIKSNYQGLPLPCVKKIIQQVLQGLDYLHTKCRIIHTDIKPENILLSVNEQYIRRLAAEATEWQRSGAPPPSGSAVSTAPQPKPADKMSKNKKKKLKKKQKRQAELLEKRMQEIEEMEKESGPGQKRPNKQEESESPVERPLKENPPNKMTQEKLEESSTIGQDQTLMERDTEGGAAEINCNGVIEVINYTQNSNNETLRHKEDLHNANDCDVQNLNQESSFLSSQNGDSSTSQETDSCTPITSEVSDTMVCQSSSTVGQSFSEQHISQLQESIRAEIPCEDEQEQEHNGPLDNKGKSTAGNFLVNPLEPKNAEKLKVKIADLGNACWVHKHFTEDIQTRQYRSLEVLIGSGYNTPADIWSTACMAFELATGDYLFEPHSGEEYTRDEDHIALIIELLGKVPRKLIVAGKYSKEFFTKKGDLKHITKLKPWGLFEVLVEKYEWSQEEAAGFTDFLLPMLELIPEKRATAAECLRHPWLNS

SMILES | Activity [1] | Activity [2] | Activity [3] | Activity [4] | Activity [5] | Activity [6] | Activity [7]
C[C@H](C(=O)O)[C@@H](NC(=O)c1ncnc2[nH]ccc12)c1ccc(Br)cc1 | 92% | 110% | 118% | 88% | 97% | 95% | 97%
COc1ccc([C@@H](Cc2nnn[nH]2)NC(=O)c2ncnc3[nH]ccc23)cc1 | 108% | 102% | 95% | 95% | 102% | 88% | 89%
CC(C)[C@@H](Nc1ncnc2[nH]ccc12)c1ccc2c(c1)S(=O)(=O)CCC2 | 129% | 99% | 88% | 107% | 105% | 83% | 103%
CC(C)[C@@H](Nc1ncnc2[nH]c(C(=O)N[C@@H]3CCN(C)C3)cc12)c1ccc2c(c1)S(=O)(=O)CCC2 | 103% | 83% | 116% | 111% | 108% | 100% | 97%
COc1ccc([C@H](Cc2nnn[nH]2)NC(=O)c2ncnc3[nH]ccc23)cc1 | 98% | 103% | 121% | 109% | 103% | 99% | 88%
CNCc1cc(-c2cc3c(N[C@@H](c4ccc5c(c4)S(=O)(=O)CCC5)C(C)C)ncnc3[nH]2)co1 | 97% | 89% | 115% | 122% | 101% | 90% | 96%
CNC(=O)Cn1cc(-c2cc3c(N[C@@H](c4ccc5c(c4)S(=O)(=O)CCC5)C(C)C)ncnc3[nH]2)cn1 | 88% | 90% | 120% | 89% | 94% | 99% | 93%
CC(C)[C@H](Nc1ncnc2[nH]ccc12)c1ccc2c(c1)S(=O)(=O)CCC2 | 93% | 89% | 123% | 102% | 100% | 90% | 98%

Continued, values first:

Activity [1] | Activity [2] | Activity [3] | Activity [4] | Activity [5] | Activity [6] | Activity [7] | SMILES
97% | 100% | 127% | 86% | 117% | 95% | 88% | Cn1ncc(-c2cc3c(N[C@@H](c4ccc5c(n4)OCCO5)C(C)(C)C)ncnc3[nH]2)c1C#N
91% | 97% | 128% | 82% | 104% | 100% | 96% | Cc1nn(C)cc1-c1cc2c(N[C@H](c3ccc4c(c3)S(=O)(=O)CCC4)C(C)C)ncnc2[nH]1
89% | 92% | 130% | 84% | 111% | 94% | 80% | CC(C)[C@H](Nc1ncnc2[nH]c(-c3cnn(C)c3C#N)cc12)c1ccc2c(n1)OCCO2
95% and 88% | 108% and 93% | 100% and 123% | 95% and 89% | 92% and 104% | 103% and 100% | 63% and 78% | CC(C)[C@@H](Nc1ncnc2[nH]c(-c3cnn(C)c3C#N)cc12)c1ccc2c(n1)OCCO2
